Measured values reported in patent US9067920B2, “Compounds useful for inhibiting Chk1” (Eli Lilly and Company, priority 2010, dated 2015).
Counter-ions that a name gives are not always drawn.

Key:
[1] = tested on: HT-29 colon carcinoma cells; assay: ECtfs (two-fold sensitization) assay, gemcitabine potentiation, MTS; format: cell-based
Method: An inhibitor of Chk1 can potentiate the anti-proliferative activity of gemcitabine (or other cytotoxics) through abrogation of the intra-S phase checkpoint, resulting in sustained and increased DNA damage. The capacity for continued tumor cell proliferation after DNA damage can be analyzed by determining the ability of cells to replicate their DNA. […] In this assay, cells are treated with a dilution series of gemcitabine, and then 22 h later with the compound of Example 3, After an additional 44 h, the relative cell number is assessed by a MTS (3-(4,5-dimethylthiazol-2-yl)-5-(3-carboxymethoxyphenyl)-2-(4-sulfophenyl)-2H-tetrazolium) dye reduction assay. The ECtfs parameter is a measure of the concentration of a Chk1 inhibitor necessary to reduce by half the (1190 concentration of gemcitabine, measured in this assay in the absence of Chk1 inhibition. HT-29 cells (obtained from ATCC), are grown in RPMI 1640 plus 10% (v/v) heat inactivated FBS, The cells are plated at 2.5×10^3 per well, in a volume of 100 μL on 96-well tissue culture plates and incubated for 24 h. Gemcitabine dilutions are prepared at 6× concentrations in McCoy's 5A medium (modified) (1×) and added to wells at 20 μper well. Gemcitabine dilutions were set up with the highest final concentration of gemcitabine being 1.0 μM and dilutions made by three-fold steps to 0.5 nM.
Chk1 Inhibitor is prepared by dilutions in DMSO to 4000× final concentration, and then diluted 666-fold into McCoy's medium to generate 6× stocks. Chk1 inhibitor dilutions proceed by 2.5-fold steps starting at 25 nM down to 0.3 nM. Twenty-two hours 1.0 after gemcitabine addition, Chk1, inhibitor is added in a volume of 24 μL to wells containing 120 μL of medium plus gemcitabine. Each gemcitabine dilution receives a single Chk1 inhibitor dilution. Control wells received DMSO, gemcitabine, or Chk1 inhibitor alone. Forty-four hours after addition of Chk1 inhibitor, 30 μL of CellTiter 96® AQueous assay reagent, is added to each well and held at room temperature for 1 hour and 45 minutes. Absorbance is read on a SpectraMax 250 (Molecular Devices) spectrophotometer at 490 nm. Data from the SpectraMax spectrophotometer are analyzed with GraphPad Prism 4.0. First, an averaged no cell control absorbance is subtracted from all other values in the matrix of data from each plate. Next, duplicate data points are averaged. Data are normalized for each Chk1 inhibitor concentration, with 0% cell number set as corrected A490=0, and 100% cell number set as the 0 nM gemcitabine mean value. […] Gemcitabine concentrations are converted to log concentrations, and normalized cell number values are converted to percent inhibition (percent inhibition=1.00-normalized value). Transformed data are plotted, and a non-linear regression is run to estimate an IC50 value for gemcitabine at each Chk1 inhibitor concentration. The nonlinear regression is calculated allowing the slope to vary, and without constraints for the top or bottom of the dose-response curves. The ECtfs value is calculated as follows: GI50 values for gemcitabine for each Chk1 inhibitor concentration are determined, plotted, and the concentration of Chk1 inhibitor necessary to decrease the gemcitabine alone GI50 by two-fold is determined by interpolation.
Compounds within the scope of the invention are tested in this assay run substantially as above. For example, the compound of Example 3 is tested and found to have an ECtfs value of 1.0 nM (SE=0.1, n=3). […]

[2] = tested on: Calu-6 lung tumor xenograft; assay: Calu-6 tumor xenograft model, subcutaneous administration of Chk1 inhibitor; format: in vivo, nude mice
Method: The ability of Chk1 inhibitors to potentiate tumor killing by DNA damaging agents can be determined in vivo using the Calu-6 lung and HT-29 colon tumor xenograft efficacy models. Calu-6 lung cancer cells are cultured in growth media (MEM with Earle's Balanced Salt Solution with L-glutamine supplemented with 10% (v/v) heat inactivated FBS, 1×MEM non-essential amino acids, 1× sodium pyruvate) and HT-29 colon cancer cells (ATCC) are cultured in growth media, (McCoy's 5A medium supplemented with 10% FBS) and expanded.
Cells are harvested and washed twice with phosphate buffered saline and 5×10^6 cells (HT-29) or 1×10^6 a cells (Calu-6) in growth media (without serum) are mixed with equal volume of BD Matrigel™ matrix, then injected subcutaneously into the flank of nude mice (CD-1 nu/nu).
At about day 16 after implant ([…]), gemcitabine is formulated fresh in saline daily and administered to animals by intraperitoneal route at 60 mg/kg dose. Twenty four hours later animals are administered the compound of Example 3, in 0.2% Tween-80/0.5% methylcellulose subcutaneously BID. After […], dosing is repeated for three additional cycles (Q4Dx4 with the compound of Example 3 offset+24 hours), Tumor growth inhibition (TGI) is calculated as the percent reduction in mean tumor size of a compound treated group from the mean tumor size of the vehicle-treated control group. Compounds within the scope of the invention are tested in this assay run substantially as above.

## COc1nc(C)ccc1-c1cc(Nc2cncc(O[C@@H]3CCCNC3)n2)[nH]n1 [Example 3, (R)-[5-(2-Methoxy-6-methyl-pyridin-3-yl)-2H-pyrazol-3-yl]-[6-(piperidin-3-yloxy)-pyrazin-2-yl]-amine acetic acid salt]
[1]; HT-29 cells, 25 nM of the compound
  decrease of the EC50 of gemcitabine: 7 fold
[1]; HT-29 cells, concentration that decreases the gemcitabine GI50 two-fold
  ECtfs value: 1.0 nM
[1]; compound alone, 25 nM
  effect on the proliferation of HT-29 cells: little effect
[2]; Calu 6, Example 3 40 mpk subcutaneous BID alone
  % TGI at day 47: −19%
[2]; Calu-6 xenograft, subcutaneous BID, gemcitabine 60 mg/kg ip
  anti-tumor activity in combination with gemcitabine: excellent dose dependent anti-tumor activity
